Measurements from ChEMBL document CHEMBL3120096 (J Med Chem, 2014).

Experiments:
Homo sapiens = organism: Homo sapiens; assay: Selectivity ratio of Ki for JAK2 (unknown origin) to Ki for LRRK2 (unknown origin)
MDR1 (P-gp, ABCB1) = MDR1 (P-gp, ABCB1) (Homo sapiens, UniProt P08183); assay: Activity at human MDR1 transfected in MDCK cells assessed as efflux ratio of apparent permeability from basolateral to apical side over apical to basolateral side at 5 uM; format: ADME, cell-based
[1] = target: T1, Leucine-rich repeat serine/threonine-protein kinase 2 (Homo sapiens, UniProt Q5S007); assay: Inhibition of LRRK2 (unknown origin) phosphorylation by cell-based assay
T1 sequence (Q5S007 whole entry): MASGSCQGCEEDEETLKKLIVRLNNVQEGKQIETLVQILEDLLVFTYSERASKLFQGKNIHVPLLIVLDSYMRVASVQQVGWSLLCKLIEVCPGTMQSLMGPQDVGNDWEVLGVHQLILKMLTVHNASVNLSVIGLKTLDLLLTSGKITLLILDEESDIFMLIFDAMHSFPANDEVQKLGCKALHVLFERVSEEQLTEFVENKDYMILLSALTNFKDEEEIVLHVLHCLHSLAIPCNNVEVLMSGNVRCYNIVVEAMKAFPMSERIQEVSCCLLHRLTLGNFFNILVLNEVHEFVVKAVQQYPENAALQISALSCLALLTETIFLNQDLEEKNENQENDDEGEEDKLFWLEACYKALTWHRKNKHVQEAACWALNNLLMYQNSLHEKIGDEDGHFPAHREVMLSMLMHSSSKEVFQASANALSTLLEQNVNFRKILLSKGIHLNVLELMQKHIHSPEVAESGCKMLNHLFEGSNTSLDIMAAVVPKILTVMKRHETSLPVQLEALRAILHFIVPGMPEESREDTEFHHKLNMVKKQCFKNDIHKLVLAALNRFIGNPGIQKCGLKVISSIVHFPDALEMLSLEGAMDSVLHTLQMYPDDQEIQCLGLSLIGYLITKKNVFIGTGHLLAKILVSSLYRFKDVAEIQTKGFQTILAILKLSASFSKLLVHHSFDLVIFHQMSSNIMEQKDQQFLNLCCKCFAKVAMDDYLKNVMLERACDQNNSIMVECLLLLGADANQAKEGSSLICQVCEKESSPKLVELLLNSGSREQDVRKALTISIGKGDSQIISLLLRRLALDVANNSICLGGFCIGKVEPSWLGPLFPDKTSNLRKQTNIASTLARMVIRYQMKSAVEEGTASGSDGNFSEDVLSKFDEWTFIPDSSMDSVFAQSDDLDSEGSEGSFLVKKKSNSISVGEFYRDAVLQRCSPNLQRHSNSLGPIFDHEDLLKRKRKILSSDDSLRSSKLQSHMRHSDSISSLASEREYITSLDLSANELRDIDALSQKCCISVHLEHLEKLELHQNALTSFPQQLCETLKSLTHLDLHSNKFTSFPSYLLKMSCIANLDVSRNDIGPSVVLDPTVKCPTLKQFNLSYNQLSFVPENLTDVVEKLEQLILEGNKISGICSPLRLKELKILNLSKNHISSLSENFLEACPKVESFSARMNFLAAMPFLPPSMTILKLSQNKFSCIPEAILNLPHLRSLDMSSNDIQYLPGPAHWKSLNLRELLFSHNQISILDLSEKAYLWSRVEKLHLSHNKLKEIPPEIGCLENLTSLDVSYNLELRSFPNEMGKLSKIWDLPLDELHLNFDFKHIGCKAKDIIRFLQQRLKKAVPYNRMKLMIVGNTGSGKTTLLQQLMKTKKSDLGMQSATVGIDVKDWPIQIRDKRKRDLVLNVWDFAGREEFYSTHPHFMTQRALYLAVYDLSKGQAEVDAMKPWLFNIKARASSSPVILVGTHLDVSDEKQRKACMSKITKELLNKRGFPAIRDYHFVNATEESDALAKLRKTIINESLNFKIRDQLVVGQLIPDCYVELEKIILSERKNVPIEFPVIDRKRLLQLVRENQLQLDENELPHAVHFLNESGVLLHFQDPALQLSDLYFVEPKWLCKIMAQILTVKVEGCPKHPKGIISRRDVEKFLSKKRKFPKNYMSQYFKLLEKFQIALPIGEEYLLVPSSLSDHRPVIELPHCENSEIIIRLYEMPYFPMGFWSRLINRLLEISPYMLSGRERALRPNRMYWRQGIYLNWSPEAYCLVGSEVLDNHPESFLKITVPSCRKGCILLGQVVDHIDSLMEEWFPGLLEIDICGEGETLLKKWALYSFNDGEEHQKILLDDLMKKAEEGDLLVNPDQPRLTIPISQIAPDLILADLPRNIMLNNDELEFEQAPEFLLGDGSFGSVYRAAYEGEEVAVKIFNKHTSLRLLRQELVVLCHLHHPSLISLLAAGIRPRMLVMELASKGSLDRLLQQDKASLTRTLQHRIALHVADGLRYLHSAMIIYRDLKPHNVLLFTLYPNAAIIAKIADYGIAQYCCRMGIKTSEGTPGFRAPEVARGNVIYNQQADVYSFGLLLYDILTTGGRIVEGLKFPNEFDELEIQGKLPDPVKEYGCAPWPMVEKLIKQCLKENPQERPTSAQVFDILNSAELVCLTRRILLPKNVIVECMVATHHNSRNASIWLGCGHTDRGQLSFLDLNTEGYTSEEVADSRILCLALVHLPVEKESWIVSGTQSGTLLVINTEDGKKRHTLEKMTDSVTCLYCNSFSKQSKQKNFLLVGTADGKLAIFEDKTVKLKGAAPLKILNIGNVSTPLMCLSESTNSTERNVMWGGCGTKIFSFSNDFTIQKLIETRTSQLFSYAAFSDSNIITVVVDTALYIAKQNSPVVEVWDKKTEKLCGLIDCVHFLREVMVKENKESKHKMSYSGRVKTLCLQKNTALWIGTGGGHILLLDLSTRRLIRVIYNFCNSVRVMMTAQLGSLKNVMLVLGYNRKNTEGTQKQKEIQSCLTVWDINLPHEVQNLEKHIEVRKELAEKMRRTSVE

[2] = Reversible inhibition of CYP in human liver microsomes by mass spectrophotometric analysis; format: ADME
Rattus norvegicus = assay: Unbound clearance in Sprague-Dawley rat at 1 mg/kg, po and 0.5 mg/kg, iv; format: ADME, organism-based; conditions: in vivo
[3] = Volume of distribution in Sprague-Dawley rat at 1 mg/kg, po and 0.5 mg/kg, iv; format: ADME, organism-based; conditions: in vivo
[4] = Clearance in Sprague-Dawley rat at 1 mg/kg, po and 0.5 mg/kg, iv; format: ADME, organism-based; conditions: in vivo
[5] = Time dependent inhibition of CYP in human liver microsomes by HPLC-MS analysis; format: ADME
[6] = Ratio of unbound drug level in brain to plasma in Sprague-Dawley rat; format: ADME, organism-based
[7] = target: T1, Leucine-rich repeat serine/threonine-protein kinase 2; assay: Inhibition of LRRK2 (unknown origin)
[8] = Half life in Sprague-Dawley rat at 1 mg/kg, po and 0.5 mg/kg, iv; format: ADME, organism-based; conditions: in vivo
[9] = Clearance in human hepatocytes at 1 uM by LC-MS/MS analysis; format: ADME, cell-based, Hepatocyte
[10] = Clearance in rat hepatocytes at 1 uM by LC-MS/MS analysis; format: ADME, cell-based, Hepatocyte
Liver microsome [11] = assay: Drug metabolism in human liver microsomes in presence of glutathione; format: ADME
[12] = Oral bioavailability in Sprague-Dawley rat at 1 mg/kg; format: ADME, organism-based; conditions: in vivo
Cytochrome P450 3A4 = Cytochrome P450 3A4 (Homo sapiens, UniProt P08684); assay: Induction of CYP3A4 in human hepatocytes; format: ADME, cell-based, Hepatocyte
Cytochrome P450 3A4, sequence (P08684 whole entry): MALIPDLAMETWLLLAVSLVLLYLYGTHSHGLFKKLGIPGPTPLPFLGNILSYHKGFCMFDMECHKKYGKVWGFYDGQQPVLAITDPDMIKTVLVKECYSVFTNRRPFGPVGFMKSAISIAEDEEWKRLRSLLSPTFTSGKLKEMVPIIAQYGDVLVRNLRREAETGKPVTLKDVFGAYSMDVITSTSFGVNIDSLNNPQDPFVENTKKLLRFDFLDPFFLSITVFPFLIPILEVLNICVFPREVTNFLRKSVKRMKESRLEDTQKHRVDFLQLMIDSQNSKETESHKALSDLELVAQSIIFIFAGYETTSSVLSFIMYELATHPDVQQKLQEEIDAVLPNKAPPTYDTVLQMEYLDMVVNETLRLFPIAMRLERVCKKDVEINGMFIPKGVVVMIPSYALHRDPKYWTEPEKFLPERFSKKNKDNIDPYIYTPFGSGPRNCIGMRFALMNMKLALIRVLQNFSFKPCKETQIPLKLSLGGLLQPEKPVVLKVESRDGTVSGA

TAK1/TAB1 (Homo sapiens) = TAK1/TAB1 (Homo sapiens) (UniProt Q15750+O43318); assay: Inhibition of TAK1/TAB1 (unknown origin) at 0.1 uM relative to control; format: protein-complex assay
[13] = Clearance in cynomolgus monkey at 1 mg/kg, po and 0.5 mg/kg, iv; format: ADME, organism-based, Macaca fascicularis; conditions: in vivo
Cytochrome P450 2B6 = target: T2, Cytochrome P450 2B6 (Homo sapiens, UniProt P20813); assay: Induction of CYP2B6 in human hepatocytes; format: ADME, cell-based, Hepatocyte
T2 sequence (P20813 whole entry): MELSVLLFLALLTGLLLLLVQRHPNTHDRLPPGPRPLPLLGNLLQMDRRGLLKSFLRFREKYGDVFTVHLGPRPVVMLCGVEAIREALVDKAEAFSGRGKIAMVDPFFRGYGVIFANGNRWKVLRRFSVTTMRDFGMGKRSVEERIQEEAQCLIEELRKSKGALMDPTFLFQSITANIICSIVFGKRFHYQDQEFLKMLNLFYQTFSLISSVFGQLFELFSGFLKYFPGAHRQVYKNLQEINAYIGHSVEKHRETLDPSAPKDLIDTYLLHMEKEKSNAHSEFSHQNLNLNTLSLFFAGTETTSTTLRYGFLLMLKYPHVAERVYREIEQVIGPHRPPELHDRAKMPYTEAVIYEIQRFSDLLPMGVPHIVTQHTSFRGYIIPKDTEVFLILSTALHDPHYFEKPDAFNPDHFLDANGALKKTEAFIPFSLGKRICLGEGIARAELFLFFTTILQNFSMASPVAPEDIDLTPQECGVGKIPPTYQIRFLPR

Mus musculus = assay: In vivo inhibition of human LRRK2 G2019S Parkinson's disease mutant expressed in BAC mouse assessed as inhibition of autophosphorylation at Ser1292 in brain at 10 to 50 mg/kg, ip after 1 to 6 hrs; format: functional, organism-based; parameters: dose 10-50 mg/kg, route intraperitoneal
[14] = Oral bioavailability in cynomolgus monkey at 1 mg/kg; format: ADME, organism-based, Macaca fascicularis; conditions: in vivo
Liver microsome [15] = assay: Drug metabolism in human liver microsomes in presence of methoxyamine; format: ADME
[16] = Plasma protein binding in cynomolgus monkey at 5 uM after 4 hrs by equilibrium dialysis technique; format: ADME, cell-free, Macaca fascicularis; conditions: read-out: PPB (converted)
[17] = Half life in cynomolgus monkey at 0.5 mg/kg, iv; format: ADME, organism-based, Macaca fascicularis; parameters: dose 0.5 mg/kg, route intravenous; conditions: in vivo
Cytochrome P450 1A2 = target: T3, Cytochrome P450 1A2 (Homo sapiens, UniProt P05177); assay: Induction of CYP1A2 in human hepatocytes; format: ADME, cell-based, Hepatocyte
T3 sequence (P05177 whole entry): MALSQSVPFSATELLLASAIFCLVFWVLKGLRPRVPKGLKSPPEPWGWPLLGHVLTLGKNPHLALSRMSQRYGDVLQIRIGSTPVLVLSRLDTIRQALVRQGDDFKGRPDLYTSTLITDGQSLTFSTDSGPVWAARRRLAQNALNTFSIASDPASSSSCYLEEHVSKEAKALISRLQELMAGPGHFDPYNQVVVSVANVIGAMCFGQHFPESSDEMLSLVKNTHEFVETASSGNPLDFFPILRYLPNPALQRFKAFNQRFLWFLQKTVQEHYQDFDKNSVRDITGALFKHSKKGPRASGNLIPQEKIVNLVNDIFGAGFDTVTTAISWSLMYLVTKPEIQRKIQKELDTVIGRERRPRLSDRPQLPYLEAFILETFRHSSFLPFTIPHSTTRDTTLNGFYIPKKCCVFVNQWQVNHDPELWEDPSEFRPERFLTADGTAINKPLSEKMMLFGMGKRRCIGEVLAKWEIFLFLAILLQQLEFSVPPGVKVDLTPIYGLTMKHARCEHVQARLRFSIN

Cynomolgus monkey = assay: Unbound clearance in cynomolgus monkey at 1 mg/kg, po and 0.5 mg/kg, iv; format: ADME, organism-based, Macaca fascicularis; conditions: in vivo

MDR1 (P-gp, ABCB1), sequence (P08183 whole entry): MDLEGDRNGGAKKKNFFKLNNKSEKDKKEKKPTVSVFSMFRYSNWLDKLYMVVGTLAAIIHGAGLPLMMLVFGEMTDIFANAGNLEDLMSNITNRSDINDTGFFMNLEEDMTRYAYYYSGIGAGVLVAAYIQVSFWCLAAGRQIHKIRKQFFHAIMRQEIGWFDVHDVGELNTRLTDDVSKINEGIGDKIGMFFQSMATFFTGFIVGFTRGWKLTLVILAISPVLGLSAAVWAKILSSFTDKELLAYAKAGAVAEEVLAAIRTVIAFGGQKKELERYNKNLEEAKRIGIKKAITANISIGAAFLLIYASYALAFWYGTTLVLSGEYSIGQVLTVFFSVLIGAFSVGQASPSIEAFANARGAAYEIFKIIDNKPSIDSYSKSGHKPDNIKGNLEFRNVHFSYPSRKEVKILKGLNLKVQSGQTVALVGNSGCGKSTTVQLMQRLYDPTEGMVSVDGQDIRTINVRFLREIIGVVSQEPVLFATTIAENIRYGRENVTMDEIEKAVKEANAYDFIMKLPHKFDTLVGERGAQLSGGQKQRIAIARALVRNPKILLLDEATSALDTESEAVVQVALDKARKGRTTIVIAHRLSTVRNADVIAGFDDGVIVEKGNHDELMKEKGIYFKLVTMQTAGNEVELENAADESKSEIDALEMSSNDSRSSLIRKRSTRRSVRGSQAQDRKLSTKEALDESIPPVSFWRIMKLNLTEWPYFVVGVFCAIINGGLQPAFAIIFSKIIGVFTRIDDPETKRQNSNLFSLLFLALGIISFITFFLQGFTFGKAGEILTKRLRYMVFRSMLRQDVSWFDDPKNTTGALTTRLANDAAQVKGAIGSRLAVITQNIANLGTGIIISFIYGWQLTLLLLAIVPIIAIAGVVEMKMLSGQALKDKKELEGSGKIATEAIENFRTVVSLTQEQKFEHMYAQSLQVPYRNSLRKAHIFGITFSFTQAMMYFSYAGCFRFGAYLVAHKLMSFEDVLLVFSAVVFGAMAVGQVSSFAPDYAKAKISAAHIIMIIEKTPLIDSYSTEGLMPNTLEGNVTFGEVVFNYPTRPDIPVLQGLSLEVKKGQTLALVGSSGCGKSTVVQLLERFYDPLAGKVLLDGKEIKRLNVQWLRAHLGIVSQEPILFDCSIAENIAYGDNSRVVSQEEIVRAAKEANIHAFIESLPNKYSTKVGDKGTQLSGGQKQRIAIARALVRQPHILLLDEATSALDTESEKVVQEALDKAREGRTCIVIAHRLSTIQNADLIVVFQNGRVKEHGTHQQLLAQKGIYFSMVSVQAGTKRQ

Ratio Ki (Homo sapiens) | efflux ratio at 5 µM (MDR1 (P-gp, ABCB1)) | IC50 [1] | CL free (Rattus norvegicus) | clearance [4] | Kp uu [6] | Ki [7] | CLhep predicted at 1 µM [9] | CLhep predicted at 1 µM [10] | Structure (SMILES) | also measured
> 150 | 5.1 | 20 nM | 45 mL/min/kg | 22 mL/min/kg | 0.06 | 4 nM | 3 mL/min/kg | 9 mL/min/kg | CNc1nc(Nc2cnn(C3CCN(C4COC4)CC3)c2C)ncc1C(F)(F)F | inhibition (INH) [2]: Not Active; Vd [3]: 1.7 L/kg; inhibition (INH) [5]: Not Active; half-life [8]: 126 min
> 150 | 1.3 | 42 nM | 105 mL/min/kg | 43 mL/min/kg | – | 3 nM | 3 mL/min/kg | 19 mL/min/kg | CNc1nc(Nc2cnn3c2C(C)OCC3)ncc1C(F)(F)F (stereo unspecified) | –
> 150 | 1 | 5 nM | 423 mL/min/kg | 65 mL/min/kg | 0.4 | 1 nM | 4 mL/min/kg | 33 mL/min/kg | CNc1nc(Nc2cnn(C(C)(C)C#N)c2C)ncc1C(F)(F)F | –

More lines, now with the values behind:

Structure (SMILES) | Ratio Ki (Homo sapiens) | efflux ratio at 5 µM (MDR1 (P-gp, ABCB1)) | IC50 [1] | CL free (Rattus norvegicus) | clearance [4] | Kp uu [6] | Ki [7] | CLhep predicted at 1 µM [9] | CLhep predicted at 1 µM [10] | also measured
CNc1nc(Nc2cn(C(C)(C)C(=O)NCC(F)(F)F)nc2C)ncc1C(F)(F)F | > 150 | 1.5 | 53 nM | – | – | – | – | – | – | –
CNc1nc(Nc2cnn3c2COCC3)ncc1C(F)(F)F | > 150 | 1 | 18 nM | – | – | – | 3 nM | – | – | –
CCNc1nc(Nc2cc(C(C)(C)C#N)nn2C)ncc1C(F)(F)F | > 150 | 1.5 | – | 201 mL/min/kg | 27 mL/min/kg | 0.5 | – | 5 mL/min/kg | 18 mL/min/kg | –
CNC(=O)C(C)(C)n1cc(Nc2ncc(C(F)(F)F)c(NC)n2)c(C)n1 | > 150 | 5.5 | 36 nM | 27 mL/min/kg | 12 mL/min/kg | – | – | – | – | –
CNc1nc(Nc2cnn([C@H]3CCN(C4COC4)C[C@@H]3F)c2Cl)ncc1C(F)(F)F (relative stereo) | – | – | 18.7 nM | 261 mL/min/kg | 26 mL/min/kg | 0.51 | 2 nM | 1 mL/min/kg | 21 mL/min/kg | inhibition (INH) [2]: Not Active; Drug metabolism (Liver microsome [11]): Not Active; bioavailability [12]: 90%; inhibition (INH) [5]: Not Active; Activity (Cytochrome P450 3A4): Not Active; inhibition (TAK1/TAB1 (Homo sapiens)): 54%; clearance [13]: 7.8 mL/min/kg; Activity (Cytochrome P450 2B6): Not Active; IC50 (Mus musculus): 20 nM; inhibition (Mus musculus): Dose-dependent effect; bioavailability [14]: 74%; Drug metabolism (Liver microsome [15]): Not Active; fraction unbound at 4 h, 5 µM [16]: 0.179; half-life [17]: 240 min; Activity (Cytochrome P450 1A2): Not Active; CL free (Cynomolgus monkey): 43 mL/min/kg
CNc1nc(Nc2cn(C3(C#N)CC3)nc2C)ncc1C(F)(F)F | > 150 | 1.4 | 30 nM | 213 mL/min/kg | 55 mL/min/kg | 0.4 | 3 nM | 5 mL/min/kg | 14 mL/min/kg | –
